The source made the active and inactive calls. No cut-off for these calls is given here.
Key:
Format in all cases: functional, organism-based
[1] = tested on: Bordetella bronchiseptica; assay: Antimicrobial activity against Bordetella bronchiseptica 4614 at 500 ppm after 24 hrs
Aspergillus niger [2] = assay: Antimicrobial activity against Aspergillus niger at 500 ppm after 24 hrs
Staphylococcus aureus [3] = assay: Antimicrobial activity against penicillin-resistant Staphylococcus aureus at 500 ppm after 24 hrs
Streptococcus pneumoniae [4] = assay: Antimicrobial activity against Pneumococcus clinical isolates at 500 ppm after 24 hrs
Staphylococcus aureus [5] = assay: Antimicrobial activity against Staphylococcus aureus 6538-P at 500 ppm after 24 hrs
Micrococcus luteus [6] = assay: Antimicrobial activity against Sarcina lutea 9341 at 500 ppm after 24 hrs
Pseudomonas aeruginosa [7] = assay: Antimicrobial activity against Pseudomonas aeruginosa NCTC 10490 at 500 ppm after 24 hrs
[8] = tested on: Saccharomyces pastorianus; assay: Antimicrobial activity against Saccharomyces carlsbergensis at 500 ppm after 24 hrs
[9] = tested on: Salmonella enterica subsp. enterica serovar Gallinarum; assay: Antimicrobial activity against Salmonella gallinarum X142 at 500 ppm after 24 hrs
Escherichia coli [10] = assay: Antimicrobial activity against Escherichia coli 10536 at 500 ppm after 24 hrs
Bacillus subtilis [11] = assay: Antimicrobial activity against Bacillus subtilis 6633 at 500 ppm after 24 hrs
Staphylococcus aureus [12] = assay: Antimicrobial activity against penicillin-resistant Staphylococcus aureus at 200 ppm after 24 hrs
Bacillus subtilis [13] = assay: Antimicrobial activity against Bacillus subtilis 6633 at 100 ppm after 48 hrs
Bacillus subtilis [14] = assay: Antimicrobial activity against Bacillus subtilis 6633 at 50 ppm after 48 hrs
Bacillus subtilis [15] = assay: Antimicrobial activity against Bacillus subtilis 6633 at 10 ppm after 48 hrs
[16] = tested on: Saccharomyces pastorianus; assay: Antimicrobial activity against Saccharomyces carlsbergensis at 10 ppm after 24 hrs
Aspergillus niger [17] = assay: Antimicrobial activity against Aspergillus niger at 10 ppm after 24 hrs
[18] = tested on: Bordetella bronchiseptica; assay: Antimicrobial activity against Bordetella bronchiseptica 4614 at 10 ppm after 48 hrs
[19] = tested on: Salmonella enterica subsp. enterica serovar Gallinarum; assay: Antimicrobial activity against Salmonella gallinarum X142 at 5 ppm after 24 hrs
[20] = tested on: Salmonella enterica subsp. enterica serovar Gallinarum; assay: Antimicrobial activity against Salmonella gallinarum X142 at 200 ppm after 24 hrs
[21] = tested on: Saccharomyces pastorianus; assay: Antimicrobial activity against Saccharomyces carlsbergensis at 5 ppm after 24 hrs
Pseudomonas aeruginosa [22] = assay: Antimicrobial activity against Pseudomonas aeruginosa NCTC 10490 at 50 ppm after 48 hrs
Pseudomonas aeruginosa [23] = assay: Antimicrobial activity against Pseudomonas aeruginosa NCTC 10490 at 10 ppm after 48 hrs
Streptococcus pneumoniae [24] = assay: Antimicrobial activity against Pneumococcus clinical isolates at 10 ppm after 48 hrs
Micrococcus luteus [25] = assay: Antimicrobial activity against Sarcina lutea 9341 at 200 ppm after 48 hrs
Staphylococcus aureus [26] = assay: Antimicrobial activity against penicillin-resistant Staphylococcus aureus at 50 ppm after 24 hrs
Escherichia coli [27] = assay: Antimicrobial activity against Escherichia coli 10536 at 50 ppm after 24 hrs
Staphylococcus aureus [28] = assay: Antimicrobial activity against penicillin-resistant Staphylococcus aureus at 5 ppm after 24 hrs
[29] = tested on: Saccharomyces pastorianus; assay: Antimicrobial activity against Saccharomyces carlsbergensis at 100 ppm after 24 hrs
Staphylococcus aureus [30] = assay: Antimicrobial activity against Staphylococcus aureus 6538-P at 100 ppm after 48 hrs
Staphylococcus aureus [31] = assay: Antimicrobial activity against Staphylococcus aureus 6538-P at 200 ppm after 48 hrs
Micrococcus luteus [32] = assay: Antimicrobial activity against Sarcina lutea 9341 at 5 ppm after 24 hrs
Aspergillus niger [33] = assay: Antimicrobial activity against Aspergillus niger at 200 ppm after 24 hrs
Micrococcus luteus [34] = assay: Antimicrobial activity against Sarcina lutea 9341 at 50 ppm after 24 hrs
Staphylococcus aureus [35] = assay: Antimicrobial activity against Staphylococcus aureus 6538-P at 50 ppm after 48 hrs
Pseudomonas aeruginosa [36] = assay: Antimicrobial activity against Pseudomonas aeruginosa NCTC 10490 at 200 ppm after 48 hrs
Staphylococcus aureus [37] = assay: Antimicrobial activity against penicilln-resistant Staphylococcus aureus at 100 ppm after 24 hrs
[38] = tested on: Bordetella bronchiseptica; assay: Antimicrobial activity against Bordetella bronchiseptica 4614 at 5 ppm after 24 hrs
Staphylococcus aureus [39] = assay: Antimicrobial activity against Staphylococcus aureus 6538-P at 10 ppm after 48 hrs
[40] = tested on: Salmonella enterica subsp. enterica serovar Gallinarum; assay: Antimicrobial activity against Salmonella gallinarum X142 at 50 ppm after 24 hrs
Bacillus subtilis [41] = assay: Antimicrobial activity against Bacillus subtilis 6633 at 200 ppm after 48 hrs
Aspergillus niger [42] = assay: Antimicrobial activity against Aspergillus niger at 50 ppm after 24 hrs
Escherichia coli [43] = assay: Antimicrobial activity against Escherichia coli 10536 at 100 ppm after 24 hrs
Staphylococcus aureus [44] = assay: Antimicrobial activity against penicilln-resistant Staphylococcus aureus at 10 ppm after 24 hrs
Micrococcus luteus [45] = assay: Antimicrobial activity against Sarcina lutea 9341 at 10 ppm after 24 hrs
Pseudomonas aeruginosa [46] = assay: Antimicrobial activity against Pseudomonas aeruginosa NCTC 10490 at 100 ppm after 48 hrs
Escherichia coli [47] = assay: Antimicrobial activity against Escherichia coli 10536 at 10 ppm after 24 hrs
[48] = tested on: Saccharomyces pastorianus; assay: Antimicrobial activity against Saccharomyces carlsbergensis at 50 ppm after 24 hrs
Escherichia coli [49] = assay: Antimicrobial activity against Escherichia coli 10536 at 200 ppm after 24 hrs
[50] = tested on: Saccharomyces pastorianus; assay: Antimicrobial activity against Saccharomyces carlsbergensis at 200 ppm after 24 hrs
Bacillus subtilis [51] = assay: Antimicrobial activity against Bacillus subtilis 6633 at 5 ppm after 24 hrs
[52] = tested on: Bordetella bronchiseptica; assay: Antimicrobial activity against Bordetella bronchiseptica 4614 at 200 ppm after 48 hrs
[53] = tested on: Bordetella bronchiseptica; assay: Antimicrobial activity against Bordetella bronchiseptica 4614 at 50 ppm after 48 hrs
Streptococcus pneumoniae [54] = assay: Antimicrobial activity against Pneumococcus clinical isolates at 50 ppm after 48 hrs
[55] = tested on: Bordetella bronchiseptica; assay: Antimicrobial activity against Bordetella bronchiseptica 4614 at 100 ppm after 48 hrs
Aspergillus niger [56] = assay: Antimicrobial activity against Aspergillus niger at 5 ppm after 24 hrs
Aspergillus niger [57] = assay: Antimicrobial activity against Aspergillus niger at 100 ppm after 24 hrs
[58] = tested on: Salmonella enterica subsp. enterica serovar Gallinarum; assay: Antimicrobial activity against Salmonella gallinarum X142 at 10 ppm after 24 hrs
Streptococcus pneumoniae [59] = assay: Antimicrobial activity against Pneumococcus clinical isolates at 100 ppm after 48 hrs
[60] = tested on: Salmonella enterica subsp. enterica serovar Gallinarum; assay: Antimicrobial activity against Salmonella gallinarum X142 at 100 ppm after 24 hrs
Streptococcus pneumoniae [61] = assay: Antimicrobial activity against Pneumococcus clinical isolates at 200 ppm after 48 hrs
Escherichia coli [62] = assay: Antimicrobial activity against Escherichia coli 10536 at 5 ppm after 24 hrs

SMILES: C=CC(C)(C)c1cc2c(O)c3c(c(C(C)(C)C=C)c2oc1=O)OC(C)(C)C=C3
- Activity [1]: inactive
- Activity (Aspergillus niger [2]): inactive
- Activity (Staphylococcus aureus [3]): inactive
- Activity (Streptococcus pneumoniae [4]): inactive
- Activity (Staphylococcus aureus [5]): inactive
- Activity (Micrococcus luteus [6]): inactive
- Activity (Pseudomonas aeruginosa [7]): inactive
- Activity [8]: inactive
- Activity [9]: inactive
- Activity (Escherichia coli [10]): inactive
- Activity (Bacillus subtilis [11]): inactive

SMILES: C=CC(C)(C)c1c2c(c(O)c3ccc(=O)oc13)C=CC(C)(C)O2
- Activity (Staphylococcus aureus [12]): inactive
- Activity (Bacillus subtilis [13]): Active
- Activity (Bacillus subtilis [14]): Active
- Activity (Bacillus subtilis [15]): Active
- Activity [16]: inactive
- Activity (Aspergillus niger [17]): inactive
- Activity [18]: Active
- Activity [19]: inactive
- Activity [20]: inactive
- Activity [21]: inactive
- Activity (Pseudomonas aeruginosa [22]): Active
- Activity (Pseudomonas aeruginosa [23]): Active
- Activity (Streptococcus pneumoniae [24]): Active
- Activity (Micrococcus luteus [25]): Active
- Activity (Staphylococcus aureus [26]): inactive
- Activity (Escherichia coli [27]): inactive
- Activity (Staphylococcus aureus [28]): inactive
- Activity [29]: inactive
- Activity (Staphylococcus aureus [30]): Active
- Activity (Staphylococcus aureus [31]): Active
- Activity (Micrococcus luteus [32]): inactive
- Activity (Aspergillus niger [33]): inactive
- Activity (Micrococcus luteus [34]): inactive
- Activity (Staphylococcus aureus [35]): Active
- Activity (Pseudomonas aeruginosa [36]): Active
- Activity (Staphylococcus aureus [37]): inactive
- Activity [38]: inactive
- Activity (Staphylococcus aureus [39]): Active
- Activity [40]: inactive
- Activity (Bacillus subtilis [41]): Active
- Activity (Aspergillus niger [42]): inactive
- Activity (Escherichia coli [43]): inactive
- Activity (Staphylococcus aureus [44]): inactive
- Activity (Micrococcus luteus [45]): inactive
- Activity (Pseudomonas aeruginosa [46]): Active
- Activity (Escherichia coli [47]): inactive
- Activity [48]: inactive
- Activity (Escherichia coli [49]): inactive
- Activity [50]: inactive
- Activity (Bacillus subtilis [51]): inactive
- Activity [52]: Active
- Activity [53]: Active
- Activity (Streptococcus pneumoniae [54]): Active
- Activity [55]: Active
- Activity (Aspergillus niger [56]): inactive
- Activity [8]: inactive
- Activity (Aspergillus niger [57]): inactive
- Activity [58]: inactive
- Activity (Streptococcus pneumoniae [59]): Active
- Activity [60]: inactive
- Activity (Streptococcus pneumoniae [61]): Active
- Activity (Escherichia coli [62]): inactive

SMILES: COc1c2c(cc3oc(=O)ccc13)OC(C)(C)C=C2
- Activity [1]: inactive
- Activity (Aspergillus niger [2]): inactive
- Activity (Staphylococcus aureus [3]): inactive
- Activity (Streptococcus pneumoniae [4]): inactive
- Activity (Staphylococcus aureus [5]): inactive
- Activity (Micrococcus luteus [6]): inactive
- Activity (Pseudomonas aeruginosa [7]): inactive
- Activity [8]: inactive
- Activity [9]: inactive
- Activity (Escherichia coli [10]): inactive
- Activity (Bacillus subtilis [11]): inactive

SMILES: C=CC(C)(C)c1c(O)c2c(c3ccc(=O)oc13)OC(C)(C)CC2=O
- Activity [1]: inactive
- Activity (Aspergillus niger [2]): inactive
- Activity (Staphylococcus aureus [3]): inactive
- Activity (Streptococcus pneumoniae [4]): inactive
- Activity (Staphylococcus aureus [5]): inactive
- Activity (Micrococcus luteus [6]): inactive
- Activity (Pseudomonas aeruginosa [7]): inactive
- Activity [8]: inactive
- Activity [9]: inactive
- Activity (Escherichia coli [10]): inactive
- Activity (Bacillus subtilis [11]): inactive

SMILES: C=CC(C)(C)c1c(O)c(/C=C/C(=O)O)c2c(c1O)C(=O)CC(C)(C)O2
- Activity [1]: inactive
- Activity (Aspergillus niger [2]): inactive
- Activity (Staphylococcus aureus [3]): inactive
- Activity (Streptococcus pneumoniae [4]): inactive
- Activity (Staphylococcus aureus [5]): inactive
- Activity (Micrococcus luteus [6]): inactive
- Activity (Pseudomonas aeruginosa [7]): inactive
- Activity [8]: inactive
- Activity [9]: inactive
- Activity (Escherichia coli [10]): inactive
- Activity (Bacillus subtilis [11]): inactive
